Like-named read-outs stand apart in the source and are kept apart here.

What all share (format): in vivo
Experiment [1] concerns Two-Spotted Spider Mite (Tetranychus urticae). Kind of experiment: Test on adults of two-spotted spider mite (kidney bean leaf dip). As to conditions: foliar, adults dipped together with kidney bean leaf, second or third day after the treatment, 25° C. The source says:
Test on Adults of Two-Spotted Spider Mite (Tetranychus urticae)
Mortality of adults (%)=(Number of dead two-spotted spider mites/Number of treated two-spotted spider mites)×100

Experiment [2] deals with Common Cutworm (Spodoptera litura). Briefly: Test on controlling effects against common cutworm (cabbage leaf disk dip). As to conditions: foliar. From the text: Test on Controlling Effects Against Common Cutworm (Spodoptera litura)
Mortality (%)=(Number of dead larvae/number of released larvae)×100

Experiment [3] deals with Green Peach Aphid (Myzus persicae). Briefly: Test on controlling effects against green peach aphid (leaf dip). The note with it: foliar, 120 h. The source says: Test on Controlling Effects Against Green Peach Aphid (Myzus persicae)
Mortality (%)=(1−(number of survived insects/number of treated insects))×100

Where [4] appears, read: 800 ppm, cabbage leaf disk dipped about 10 seconds, second-third instar larvae, fifth day after the release, 25° C., read-out: mortality.
Where [5] appears, read: 800 ppm, Japanese radish leaf dipped about 10 seconds, first instar nymphs, counted 5 days after the treatment, 25° C., read-out: mortality.

For orientation: mortality means the percentage killed. Consider `CC(c1cccnc1)N(Cc1ccccn1)c1cc(C(F)(F)F)c(Cl)c(Cl)n1` (stereo not drawn) [Compound No. 97, N-(1-(3-PYRIDYL)ETHYL)-N-(2-PYRIDYLMETHYL)-5,6-DICHLORO-4-TRIFLUOROMETHYL-2-PYRIDYLAMINE], for which the mortality at 800 ppm in experiment [1], in experiment [2] (setting [4]) and in experiment [3] (setting [5]) was at least 90% each time.

For `O=[N+]([O-])c1cnc(N(Cc2ccccn2)Cc2ccccn2)cc1C(F)(F)F` [Compound No. 9, N,N-BIS(2-PYRIDYLMETHYL)-5-NITRO-4-(TRIFLUOROMETHYL)-2-PYRIDYLAMINE], the mortality at 800 ppm in experiment [2] and in experiment [3] (in Raphanus sativus) was at least 90% each time.

`FC(F)(F)c1cc(Cl)nc(NCc2ccccn2)c1` [Compound No. 128, N-(2-PYRIDYLMETHYL)-6-CHLORO-4-(TRIFLUOROMETHYL)-2-PYRIDYLAMINE]: the mortality at 800 ppm in experiment [3] (setting [5]) was at least 90%.

On to `C#Cc1nc(N(Cc2ccccn2)Cc2ccccn2)cc(C(F)(F)F)c1Cl` [Compound No. 94, N,N-BIS(2-PYRIDYLMETHYL)-5-CHLORO-6-ETHYNYL-4-(TRIFLUOROMETHYL)-2-PYRIDYLAMINE], for which the mortality at 800 ppm in experiment [1] and in experiment [3] (setting [5]) was at least 90% each time.

`N#Cc1c(C(F)(F)F)cc(N(Cc2ccccn2)Cc2ccccn2)nc1Cl` [Compound No. 24, N,N-bis(2-pyridylmethyl)-6-chloro-5-cyano-4-(trifluoromethyl)-2-pyridylamine]: the mortality at 800 ppm in experiment [2] and in experiment [3] (in Raphanus sativus) was at least 90% each time.

With `FC(F)(F)c1cc(N(Cc2ccccn2)Cc2ccccn2)nc(Br)c1Cl` [Compound No. 92, N,N-BIS(2-PYRIDYLMETHYL)-6-BROMO-5-CHLORO-4-(TRIFLUOROMETHYL)-2-PYRIDYLAMINE], the mortality at 800 ppm in experiment [1], in experiment [2] (setting [4]) and in experiment [3] (setting [5]) was at least 90% throughout.

In the case of `FC(F)(F)c1cc(Br)nc(N(Cc2ccccn2)Cc2ccccn2)c1` [Compound No. 90, N,N-BIS(2-PYRIDYLMETHYL)-6-BROMO-4-(TRIFLUOROMETHYL)-2-PYRIDYLAMINE], the mortality at 800 ppm in experiment [1] and in experiment [3] (setting [5]) was at least 90% in each case.

In the case of `FC(F)(F)c1cc(N(Cc2ccccn2)Cc2ccccn2)nc(C(F)(F)F)c1Cl` [Compound No. 103, N,N-BIS(2-PYRIDYLMETHYL)-5-CHLORO-4,6-BIS(TRIFLUOROMETHYL)-2-PYRIDYLAMINE], the mortality at 800 ppm in experiment [1], in experiment [2] (setting [4]) and in experiment [3] (setting [5]) was at least 90% in each case.

As for `C=CCN(Cc1ccccn1)c1cc(C(F)(F)F)c(Cl)c(Cl)n1` [Compound No. 55, N-ALLYL-N-(2-PYRIDYLMETHYL)-5,6-DICHLORO-4-(TRIFLUOROMETHYL)-2-PYRIDYLAMINE], the mortality at 800 ppm in experiment [1], in experiment [2] (setting [4]) and in experiment [3] (setting [5]) was at least 90% each time.

Regarding `FC(F)(F)c1cc(NCc2ccccn2)nc(Cl)c1Cl` [Compound No. 118, N-(2-PYRIDYLMETHYL)-5,6-DICHLORO-4-(TRIFLUOROMETHYL)-2-PYRIDYLAMINE], the mortality at 800 ppm in experiment [1], in experiment [2] (setting [4]) and in experiment [3] (setting [5]) was at least 90% each time.

(Values after patent publication US20100160326A1, “PEST CONTROL AGENT CONTAINING NOVEL PYRIDYL-METHANAMINE DERIVATIVE OR SALT THEREOF” (ISHIHARA SANGYO KAISHA, LTD., priority 2006, published 2010).)
